This is an account of results in patent US10583109B2, “Use of silver(I) complexes as anticancer agents” (University of Johannesburg, priority 2012, dated 2020).

One may read the IC50 as the point on the concentration scale where inhibition reaches its midpoint. A higher IC50 goes with weaker potency.

In data set [1] the test system is SNO-oesophageal cancer cells. It is filed as cell-based. The note with it: 100 μM, 24 hour treatment. The method, then:
The SNO-oesophageal cancer cells were cultured in Dulbecco's modified Eagles medium (DMEM) containing 10% Foetal bovine serum (FBS), 0.8% Penicillin/Streptomycin/Fungizone and 0.2% Gentamycin. The SNO-oesophageal cancer cells were subcultured every 48 hours and incubated at 37° C. under a 5% CO2 humidified atmosphere. After 48 hours the cells were trypsinized and plated (6×10^5 cells) in 3.5 cm culture dishes and left to cultivate for 24 hours.
MCF-7 breast cancer cells, in terms of a first study, and SNO-oesophageal cancer cells, in terms of a second study, were treated with 10 μM silverthiocyanide complexes (1)-(5), as well as their ligands (Ligand-1 to Ligand-5) over a 24 hour incubation period. These complexes were dissolved in 0.1% Dimethyl sulfoxide (DMSO). The DMSO alone (vehicle control) decreased the viability with approximately 2.2%, signifying its minimal influence in cancer cell growth. For comparative purposes, 100 μM Cisplatin (CDDP) and 25% H2O2 was included which respectively serves as the apoptotic and necrotic controls. Cisplatin was prepared in 0.9% NaCl, whereas H2O2 was prepared in the supplemented DMEM media right before treatment. An untreated negative control (UT) was exposed to similar conditions as the treated cells and monitored during the experimental study.
An AlamarBlue® Viability® (Serotec, UK) assay was performed after a 24 hour treatment with complexes (1)-(5) and their ligands (Ligand-1 to Ligand-5, respectively) to evaluate the cellular effect the instant complexes (and their ligands) may have on the cancer cells. AlamarBlue® dye (10%) was incubated with trypsinized cells over a 2 hour period before the fluorescence was measured with a Synergy HT Multi-Detection Microplate reader (BioTek, Winooski, Vt.) at wavelengths of 530 nm and (excitation) and 590 nm (emission). This fluorescent based assay in particular involves the metabolic oxidation-reduction reaction of resazurin to a reduced resorufin product that is directly proportional to the amount of viable cells.
The percentage cellular viability of differentially treated SNO-oesophageal cells was determined using an AlamarBlue® assay, as depicted in FIG. 7. Different controls (grey) were included: untreated, 0.1% DMSO solvent and apoptotic control (100 μM Cisplatin) as well as the corresponding ligands (10 μM) of complexes (1)-(5). Cells were treated with silver(I) thiocyanate phosphine complexes (1)-(5) at a concentration of 10 μM. The percentages were calculated with respect to the control and error bars were constructed on the basis of Standard Error of the Mean (SEM) where n=9 except for the ligand of compound 4 (n=8). The P-values (*P<0.001 and **P<0.0001) were determined with the Student's T-test to evaluate the significant difference.
The cells were thereafter treated with complexes (6)-(9) at a concentration of 10 μM prepared in 0.1% DMSO. Treatment with either 25% H2O2 or 100 μM CDDP served as controls for necrosis and apoptosis respectively. The CDDP was prepared in 0.9% NaCl while the H2O2 was diluted with supplemented DMEM prior to treatment.
A suspension (100 μl) of the differentially treated cells was added in triplicate to a microtiter plate. In the dark, AlamarBlue® dye (10 μl) was added to each well containing a sample, followed by a 2 hour incubation in a 5% CO2 incubator at 37° C. The fluorescence was read on a Synergy HT Multi-Detection Microplate reader at a wavelength of 530 nm and (excitation) and 590 nm (emission). In terms of this study, the apoptotic control CDDP (100 μM) was included. Error bars represent the standard error of the mean (SEM) where n=9. The Student's T-test was used to determine the significant difference of the treatments with respect to DMSO (P*<0.05 and P**<0.001). The silver(I) nitrate phosphine complexes under evaluation decreased the cancer cell viability to a large extent compared to DMSO except complex (9).
SNO-oesophageal cancer cells were a gift from the University of Pretoria, RSA. […]

Data set [2] concerns Caspase-3/7. The experiment in a line: Caspase-Glo 3/7 assay in SNO-oesophageal cancer cells. It is filed as cell-based. The settings on record: 100 μM, 24 hours treatment. The method, then:
The Caspase-Glo®3/7 assay was used to confirm that the structural changes observed are due to apoptotic cell death. In this luminescent based assay, a 1:1 ratio of the Caspase-Glo® reagent was added to treated cells into a microtiter plate. The plate was gently agitated for 30 seconds and incubated for 30 minutes at room temperature. The whole luminescent intensity was measured using a Synergy HT Multi-Detection Microplate reader, where the intensity of the luminescence is proportional to the Caspase-3/7 concentration.
The error bars where constructed based on the standard error of the mean (SEM) where n=6. The significant difference were calculated with respect to the vehicle control (P<**0.001). A relative increase in expression was observed throughout.

In data set [3] the test system is A375 malignant melanoma cancer cells. The data set is described as follows: AlamarBlue viability and proliferation assay of A375 malignant melanoma cancer cells. Format: cell-based, human. The note with it: concentration range 1.0 μM-10.0 μM, viability as percentage of 1.0% DMSO vehicle control, quadratic equation. For orientation: Alamar Blue is a resazurin reagent that responds to reducing activity.
Method: A375 melanoma cancer cells originate from an immortal cell line from human malignant melanoma from skin (ATCC no CRL-1619).
A375 malignant melanoma cancer cells were cultured in Dulbecco's Modified Eagle's Medium (DMEM), 13.53 g/L with sodium bicarbonate (NaHCO3), 3.7 g/L supplemented with 10% fetal bovine serum (FBS), and 1% Penicillin/Streptomycin/Fungizone in 75 cm^3 sterile culture flasks. Cells were incubated at 37° C. with 5% CO2 in a humidified atmosphere and were subcultured twice a week. Cells were subcultured every 48 hours and used between Passages 3 and 7. […]
An AlamarBlue® (Serotec, UK) assay was done to investigate the proliferation capabilities of the differentially treated cells. AlamarBlue® dye (10%) was incubated with trypsinized cells over a 2-hour period before the fluorescence was measured with a Synergy HT Multi-Detection Microplate reader (BioTek, Winooski, Vt.) at wavelengths of 530 nm and (excitation) and 590 nm (emission). […]
Treatment volumes were 1.0 μL of 1-10 μM range of stock solutions. Fluorescence was measured with 530 nm excitation wavelength and 590 nm emission wavelength. FIG. 21 represents 3 biological repeats measured in triplicate. DMEM reference blanks were averaged and subtracted from all readings and cellular viability values were calculated as percentage of the 1.0% DMSO vehicle control (VC). […]

For data set [4] the test system is unchanged. The data set is described as follows: Celltitre-Glo Luminescent Cell Viability Assay (ATP) in A375 cells. It is filed as cell-based, human. The note with it: 10 µM. The method, then:
(§1) For purposes of the Celltitre-Glo™ Luminescent Cell Viability [Promega, USA] assay, a 1:1 mixture of cell sample to Celltitre-Glo™ substrate/buffer mix reagent, in duplicate, was added to 96-well black plate, shaken for 30 seconds at room temperature and then further incubated for 30 minutes. Whole luminescence was then measured with a Synergy HT Multi-Detection Microplate Reader. The CytoTox-ONE™ Homogenous Membrane Integrity [Promega, USA] assay is a rapid fluorescent assay that measures the level of lactate dehydrogenase leaked from damaged membranes, therefore, the amount of fluorescence measured is directly proportional to the amount of lysed/damaged cells. In triplicate, a 1:1 cell sample to CytoTox-ONE™ substrate/buffer mix reagent was added to a 96-well clear plate, shaken for 30 seconds followed by incubation for 10 minutes. A CytoTox-ONE™ stop solution was added to each sample followed by a further 30 second shake on an orbital shaker. […] The fluorescence was then measured with a Synergy HT Multi-Detection Microplate Reader at an excitation wavelength of 530 nm and emission wavelength of 590 nm. FIG. 25 depicts the percentage ATP and Lactate Dehydrogenase (LDH) measured in differentially treated A375 malignant melanoma cancer cells as determined by the Celltitre-Glo™ Luminescent Cell Viability Assay and CytoTox-ONE™ Membrane Integrity Assay respectively. […]

The test system is the same in data set [5]. The data set is described as follows: CytoTox-ONE Membrane Integrity Assay (LDH) in A375 cells. It is filed as cell-based, human. The settings on record: 10 µM. On the procedure:
as §1

For data set [6], the system named is Caspase 3/7. The data set is described as follows: Caspase-GLO 3/7 assay in A375 cells. It is filed as cell-based, human. The note with it: 10 μM, 24 hour treatments. From the text:
Caspase-GLO™ 3/7, 8 and 9 Assays are luminescent assays that measure Caspase activities, which have key effector functions in intrinsic and extrinsic apoptosis, therefore the amount of luminescence measured is proportional to the amount of Caspase activity present. The assays are based on the principle that after Caspase cleavage, a substrate containing the tetrapeptide DEVD sequence binds with Caspase and is released for a luminescent reaction with a thermostable luciferase enzyme. In duplicate, a 1:1 cell sample to Caspase-Glo™ substrate/buffer mix reagent was added into 96-well black plates, then shaken for 30 seconds at room temperature followed by a 1 hour incubation. Whole luminescence was then measured with a Synergy HT Multi-Detection Microplate Reader.
FIG. 26 depicts Caspase 3/7, 8 and 9 levels in differentially treated A375 malignant melanoma cancer cells as determined by relative luminescence recorded using Caspase-GLO™ assays. Caspase levels represented as a percentage of 1.0% DMSO Vehicle Control (VC) set at 100%. Cells treated with: CDDP=100 μM Cisplatin Positive Apoptotic Control and then 10 μM concentrations of complex (13) and complex (14). […]

Each structure is given as a SMILES string.

`N.N.[Cl][Pt][Cl]` [Cisplatin, reference compound]: the cells killed in data set [1] is given as about 74%. Further, in data set [2], the Caspase induction was found to be 2 fold increase.
For the molecule `[Br][Ag]([PH](c1ccccc1)(c1ccccc1)c1ccccc1)([PH](c1ccccc1)(c1ccccc1)c1ccccc1)[PH](c1ccccc1)(c1ccccc1)c1ccccc1` [complex (13), AgBr(PPh3)3], the IC50 in data set [3] was 5.16 µM. In addition, the “ATP levels (cellular viability)” value in data set [4] is recorded as “less than 20%”. Also, the “LDH levels compared to the VC” value in data set [5] is “significant increase”. The “Caspase 3/7 levels compared to the VC” value in data set [6] is given as “increased”.
`O=[N+]([O-])[O-].[Ag+].c1ccc(P(c2ccccc2)c2ccccc2)cc1.c1ccc(P(c2ccccc2)c2ccccc2)cc1.c1ccc(P(c2ccccc2)c2ccccc2)cc1` [complex (14), AgNO3(PPh3)3]: the IC50 in data set [3] was found to be 6.77 µM. Also, in data set [5], the “LDH levels compared to the VC” value was “significant increase”. Also, the “Caspase 3/7 levels compared to the VC” value in data set [6] is reported as “increased”.
